In brackets after ≈: the same amount, converted by molar mass.

Type in all cases: cell-based
Assay [1] has as its system H460 (human lung cancer cell). Put plainly: In vitro anti-tumor cellular activity (MTT), H460. Conditions: for H460 IC50: 72 hours; for IC50: Homo sapiens, NCI-H460, 72 hours. Here is the method:
(§1) After pouring the cell dissociation buffer to the centrifugetube, nutrient solution was added to stop digestion. The centrifugetube were centrifuged for 10 min under 800 r/min, the liquid supernatant was removed, 5 mL culture solution was added, after mixing by pipetting the cell, took 10 μL cell suspension to the cell counting plat, and adjusted the cell concentration to 10^4/well. Among the 96 wells, A1 is empty, 100 μL of cell suspension were added to the other wells. The 96 well plates were incubated in the incubator for 24 h. […] The 96-well plates were placed in an incubator and cultivated for 72 hours. (3) The culture media containing the compounds in the 96-well plates was discarded, and the cells were washed with phosphate buffered solution (PBS) twice. Each well was added with 100 μL MTT (tetrazole) (0.5 mg/mL), and then placed in an incubator to incubate for 4 hours, after which MTT solution was discarded and 100 μL dimethyl sulfoxide was added thereto.

For assay [2], the system named is HT-29 (colon cancer cell). Put plainly: In vitro anti-tumor cellular activity (MTT), HT-29. Conditions: 72 hours; for IC50: Homo sapiens. As for the experimental part:
as §1

In assay [3] the test system is MKN-45 (human gastric carcinoma cell). Put plainly: In vitro anti-tumor cellular activity (MTT), MKN-45. The conditions noted are these: 72 hours; for IC50: Homo sapiens. Here is the method: as §1
Assay [4] deals with SMMC-7721 (hepatoma cell). The assay is described as follows: In vitro anti-tumor cellular activity (MTT), SMMC-7721. The conditions noted are these: 72 hours; for IC50: Homo sapiens. Here is the method: as §1
The subject of assay [5] is MDA-MB-231 (human beast cancer cell). Put plainly: In vitro anti-tumor cellular activity (MTT), MDA-MB-231. Conditions: 72 hours; for IC50: Homo sapiens. As for the experimental part: as §1
Assay [6] has as its system U87MG (Human malignant glioblastoma cell). The assay is described as follows: In vitro anti-tumor cellular activity (MTT), U87MG. Conditions: 72 hours; for IC50: Homo sapiens, U-87 MG. As for the experimental part: as §1

Regarding “(E)-N^1-(3-fluoro-4-(6-methoxy-7-(3-(piperidin-1-yl)propoxy)quinolin-4-yloxy)phenyl)-N^4-(3,4-difluorobenzylidene)thiosemicarbazide [Example 31]”, in assay [1], the “H460 IC50” value is 0.041 µg/mL. Further, the “HT-29 IC50” value in assay [2] was found to be 0.013 µg/mL. Besides, in assay [3], the “MKN-45 IC50” value is 0.11 µg/mL. The “SMMC-7721 IC50” value in assay [4] turned out to be 0.39 µg/mL. Further, in assay [5], the “MDA-MB-231 IC50” value turned out to be 0.059 µg/mL. In assay [6], the “U87MG IC50” value was 0.22 µg/mL.

Take `COc1cccc(/C=N/NC(=O)Nc2ccc(Oc3ccnc4cc(OCCCN5CCC(C)CC5)c(OC)cc34)c(F)c2)c1` [Example 7]: in assay [1], the “H460 IC50” value was determined as 0.0012 µg/mL. Also, the “HT-29 IC50” value in assay [2] was found to be 0.0006 µg/mL. Also, the “MKN-45 IC50” value in assay [3] is 0.0021 µg/mL. For the same compound, in assay [4], the “SMMC-7721 IC50” value came to 0.13 µg/mL. In addition, the “MDA-MB-231 IC50” value in assay [5] turned out to be 0.011 µg/mL. Further, the “U87MG IC50” value in assay [6] was 0.10 µg/mL.

Consider “(E)-N^1-(3-fluoro-4-(6-methoxy-7-(3-(piperidin-1-yl)propoxy)quinoline-4-yloxy)phenyl)-N^4-(2-nitrobenzaldehyde)thiosemicarbazone [Example 34]”, for which, in assay [1], the “H460 IC50” value stood at 0.089 µg/mL. Besides, the “HT-29 IC50” value in assay [2] was 0.076 µg/mL. In assay [3], the “MKN-45 IC50” value was 0.12 µg/mL. Further, the “SMMC-7721 IC50” value in assay [4] was 0.24 µg/mL. In addition, the “MDA-MB-231 IC50” value in assay [5] worked out at 0.077 µg/mL. The “U87MG IC50” value in assay [6] was found to be 0.19 µg/mL.

On to `COc1cc2c(Oc3ccc(NC(=O)N/N=C(\C)c4ccccc4)cc3F)ccnc2cc1OCCCN1CCCCC1` [Example 17, (E)-N^1-(3-fluoro-4-(6-methoxy-7-(3-(piperidin-1-yl)propoxy)quinoline-4-yloxy)phenyl)-N^4-(acetophenone)semicarbazone], for which the “H460 IC50” value in assay [1] is 0.069 µg/mL. The “HT-29 IC50” value in assay [2] turned out to be 0.0057 µg/mL. Moreover, in assay [3], the “MKN-45 IC50” value stood at 0.072 µg/mL. In addition, the “SMMC-7721 IC50” value in assay [4] was found to be 0.13 µg/mL. The “MDA-MB-231 IC50” value in assay [5] is 0.071 µg/mL. Besides, the “U87MG IC50” value in assay [6] worked out at 0.24 µg/mL.

Regarding `COc1cc2c(Oc3ccc(NC(=S)N/N=C/c4ccccc4)cc3F)ccnc2cc1OCCCN1CCCC1` [Example 36, (E)-N^1-(3-fluoro-4-(6-methoxy-7-(3-(pyrrolidin-1-yl)propoxy)quinoline-4-yloxy)phenyl)-N^4-(benzaldehyde)thiosemicarbazone], the “H460 IC50” value in assay [1] came out at 0.034 µg/mL. The “HT-29 IC50” value in assay [2] is 0.012 µg/mL. Besides, the “MKN-45 IC50” value in assay [3] is 0.11 µg/mL. Also, in assay [4], the “SMMC-7721 IC50” value was 0.35 µg/mL. Besides, the “MDA-MB-231 IC50” value in assay [5] worked out at 0.048 µg/mL. Besides, the “U87MG IC50” value in assay [6] was determined as 0.29 µg/mL.

Consider `COc1cc2c(Oc3ccc(NC(=O)N/N=C/c4ccc(Cl)cc4Cl)cc3F)ccnc2cc1OCCCN1CCCC1` [Example 19, (E)-N^1-(3-fluoro-4-(6-methoxy-7-(3-(pyrrolidin-1-yl)propox)quinoline-4-yloxy)phenyl)-N^4-(2,4-dichlorobenzaldehyde)semicarbozone], for which the “H460 IC50” value in assay [1] stood at 0.96 µg/mL. The “HT-29 IC50” value in assay [2] came out at 1.4 µg/mL. Further, the “MKN-45 IC50” value in assay [3] was determined as 0.71 µg/mL. The “SMMC-7721 IC50” value in assay [4] came out at 0.97 µg/mL. Also, in assay [5], the “MDA-MB-231 IC50” value was determined as 1.2 µg/mL. Further, in assay [6], the “U87MG IC50” value was 1.9 µg/mL.

As for `COc1cc2c(Oc3ccc(C=NNC(=O)Nc4cccc(Br)c4)cc3F)ccnc2cc1OCCCN1CCOCC1` [Example 54, (E)-N^1-(3-bromophenyl)-N^4-(3-fluoro-4-(6-methoxy-7-(3-(morpholin-4-yl)propoxy)quinoline-4-yloxy)benzaldehyde)semicarbazone], the “H460 IC50” value in assay [1] was 1.5 µg/mL. The “HT-29 IC50” value in assay [2] came to 1.3 µg/mL. For the same compound, in assay [3], the “MKN-45 IC50” value amounted to 2.0 µg/mL. For the same compound, in assay [4], the “SMMC-7721 IC50” value worked out at 2.7 µg/mL. The “MDA-MB-231 IC50” value in assay [5] came to 0.96 µg/mL. Besides, the “U87MG IC50” value in assay [6] came to 1.8 µg/mL.

By IC50 is commonly meant the point on the concentration scale where inhibition reaches its midpoint. Consider `COc1cc2c(Oc3ccc(N(/N=C/c4cc(C)c(O)c(C)c4)C(N)=O)cc3F)ccnc2cc1OCCCN1CCOCC1` [Example 27, (E)-N^1-(3-fluoro-4-(6-methoxy-7-(3-(morpholin-4-yl)propoxy)quinoline-4-yloxy)phenyl)-N^4-(3,5-dimethyl-4-hydroxybenzaldehyde)semicarbazone], for which the IC50 in assay [1] stood at 1.3 µg/mL (≈ 2.1 µM); in assay [2], 0.59 µg/mL (≈ 0.955 µM); in assay [3] it was 0.2 µg/mL (≈ 0.324 µM); in assay [4], 0.53 µg/mL (≈ 0.858 µM); in assay [5], 0.96 µg/mL (≈ 1.55 µM); in assay [6], 1.4 µg/mL (≈ 2.27 µM).

With “(E)-N^1-(3-fluoro-4-(6-methoxy-7-(3-(piperidin-1-yl)propoxy)quinoline-4-yloxy)phenyl)-N^4-(2,4-dichlorobenzaldehyde)thiosemicarbazone [Example 41]”, the “H460 IC50” value in assay [1] is 0.097 µg/mL. In addition, the “HT-29 IC50” value in assay [2] is 0.13 µg/mL. For the same compound, the “MKN-45 IC50” value in assay [3] came to 0.10 µg/mL. Moreover, in assay [4], the “SMMC-7721 IC50” value stood at 0.66 µg/mL. The “MDA-MB-231 IC50” value in assay [5] worked out at 0.088 µg/mL. Also, the “U87MG IC50” value in assay [6] is 0.54 µg/mL.

Regarding `COc1cc2c(Oc3ccc(NC(=S)N/N=C/c4ccccc4)cc3F)ccnc2cc1OCCCN1CCC(C)CC1` [Example 37, (E)-N^1-(3-fluoro-4-(6-methoxy-7-(3-(4-methylpiperidin-1-yl)propoxy)quinoline-4-yloxy)phenyl)-N^4-(benzaldehyde)thiosemicarbazone], the “H460 IC50” value in assay [1] was 0.089 µg/mL. Moreover, the “HT-29 IC50” value in assay [2] stood at 0.13 µg/mL. In assay [3], the “MKN-45 IC50” value was found to be 0.56 µg/mL. Besides, in assay [4], the “SMMC-7721 IC50” value was 0.43 µg/mL. Besides, the “MDA-MB-231 IC50” value in assay [5] amounted to 0.13 µg/mL. Further, the “U87MG IC50” value in assay [6] stood at 0.50 µg/mL.

Take `COc1cc2c(Oc3ccc(NC(=O)N/N=C/c4ccccc4)cc3F)ccnc2cc1OCCCN1CCC(C)CC1` [Example 2, (E)-N^1-(3-fluoro-4-(6-methoxy-7-(3-(4-methylpiperidin-1-yl)propoxy)quinoline-4-yloxy)phenyl)-N^4-(benzaldehyde)semicarbazone]: the “H460 IC50” value in assay [1] was found to be 0.15 µg/mL. In assay [2], the “HT-29 IC50” value turned out to be 0.17 µg/mL. Moreover, the “MKN-45 IC50” value in assay [3] was 0.18 µg/mL. For the same compound, the “SMMC-7721 IC50” value in assay [4] worked out at 0.43 µg/mL. Also, in assay [5], the “MDA-MB-231 IC50” value was determined as 0.12 µg/mL. Also, in assay [6], the “U87MG IC50” value was found to be 0.31 µg/mL.

`COc1cc2c(Oc3ccc(N(/N=C/c4c(O)ccc5ccccc45)C(N)=O)cc3F)ccnc2cc1OCCCN1CCC(C)CC1` [Example 21, (E)-N^1-(3-fluoro-4-(6-methoxy-7-(3-(4-methylpiperidin-1-yl)propoxy)quinoline-4-yloxy)phenyl)-N^4-(2-hydroxy-1-naphthaldehyde)semicarbazone]: the IC50 in assay [1] came to 0.16 µg/mL (≈ 0.245 µM); in assay [2], 0.065 µg/mL (≈ 0.0997 µM); in assay [3], 0.1 µg/mL (≈ 0.153 µM); in assay [4], 0.98 µg/mL (≈ 1.5 µM); in assay [5], 0.087 µg/mL (≈ 0.133 µM); in assay [6], 0.89 µg/mL (≈ 1.37 µM).

Consider “(E)-N^1-(3-fluoro-4-(6-methoxy-7-(3-(4-methylpiperidin-1-yl)propoxy)quinoline-4-yloxy)phenyl)-N^4-(2-chloro-4-fluorobenzaldehyde)semicarbazone [Example 13]”, for which the “H460 IC50” value in assay [1] came out at 0.097 µg/mL. Besides, the “HT-29 IC50” value in assay [2] amounted to 0.16 µg/mL. For the same compound, the “MKN-45 IC50” value in assay [3] was 0.27 µg/mL. The “SMMC-7721 IC50” value in assay [4] was found to be 0.29 µg/mL. The “MDA-MB-231 IC50” value in assay [5] is 0.16 µg/mL. Also, the “U87MG IC50” value in assay [6] was determined as 0.33 µg/mL.

The values above are taken from US9783499B2, “Quinoline derivatives and their applications” (Shenyang Pharmaceutical University, priority 2012, dated 2017).
